Assay results as given in US6008227A, “Process for blocking 5-HT and dopamine uptake with biologically active tropane derivatives” (Wake Forest University, priority 1993, dated 1999).
“Also recorded” adds a separate entry of the source. Where two headings read alike, the source gives them in different places.

Legend:
dopamine transporter [1] = molecular target: T1, dopamine transporter (Rattus norvegicus, UniProt P23977); assay: Displacement of [^125 I]RTI-55 binding to dopamine transporters in rat striatal membranes; settings: for Ki: [^125 I]RTI-55 10-20 pM, rat striatal membranes; for binding ratio: 5-HT K1 / DA K1, higher numbers demonstrate relatively greater dopamine transporter potency; for displacement of [^125 I]RTI-55 binding, in words: FIG. 1
T1 construct: was used to label dopamine transporters in rat striatal membranes; from tissue; host or cells: rat striatal membranes

5-HT transporter [2] = molecular target: T2, 5-HT transporter (Rattus norvegicus, UniProt P31652); assay: Displacement of [^3 H]paroxetine binding to 5-HT transporter sites in rat frontal cortex; set-up: from tissue; host or cells: rat frontal cortex; settings: for selectivity towards the 5-HT transporter in terms of binding and inhibition, in words: binding and uptake inhibition; for displacement of [^3 H]paroxetine binding, in words: FIG. 2 / text; for selectivity between dopamine and 5-HT transporters, in words: binding assays; for times more potent than cocaine at 5-HT transporter sites: vs cocaine, [^3 H]paroxetine binding
dopamine transporter [3] = molecular target: T1, dopamine transporter; assay: Inhibition of [3H]dopamine uptake into dissociated striatal cells from fetal and adult rat brain; assay type: cell-based; settings: for uptake ratio: 5-HT uptake IC50 / DA uptake IC50; for inhibition of [3H]dopamine uptake into striatal cells, in words: FIG. 3; for dopamine: 5-HT ratio: regardless of the assay used (binding or uptake)
5-HT transporter [4] = molecular target: T2, 5-HT transporter; assay: Inhibition of [^3 H]5-HT uptake in dissociated frontal cortex cells from fetal and adult rat brain; assay type: cell-based; set-up: from tissue; host or cells: rat frontal cortex; settings: for IC50: frontal cortex cells, fetal and adult rat brain; for blocking [^3 H]5-HT uptake in cortical cells, in words: FIG. 4
[5] = vs cocaine, [^125 I]RTI-55 binding
[6] = read-out: [^3 H] paroxetine K1, [^3 H]paroxetine, rat frontal cortex

T1 sequence (P23977 whole entry): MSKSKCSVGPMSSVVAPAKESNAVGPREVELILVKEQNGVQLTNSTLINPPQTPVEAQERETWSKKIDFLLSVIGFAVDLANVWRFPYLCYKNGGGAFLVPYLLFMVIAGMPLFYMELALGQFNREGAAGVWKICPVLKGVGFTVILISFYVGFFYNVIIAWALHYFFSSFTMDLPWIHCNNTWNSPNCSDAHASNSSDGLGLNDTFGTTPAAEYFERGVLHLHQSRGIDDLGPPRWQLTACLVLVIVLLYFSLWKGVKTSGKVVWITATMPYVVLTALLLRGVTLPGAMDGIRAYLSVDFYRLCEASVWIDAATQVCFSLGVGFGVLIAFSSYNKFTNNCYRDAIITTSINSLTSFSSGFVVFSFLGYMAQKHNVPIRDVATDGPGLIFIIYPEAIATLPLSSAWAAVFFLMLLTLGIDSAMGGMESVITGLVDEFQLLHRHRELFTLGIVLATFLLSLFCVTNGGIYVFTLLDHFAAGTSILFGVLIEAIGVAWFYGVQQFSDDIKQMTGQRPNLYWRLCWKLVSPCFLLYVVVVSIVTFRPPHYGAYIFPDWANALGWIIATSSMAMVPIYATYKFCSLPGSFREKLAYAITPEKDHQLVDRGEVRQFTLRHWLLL
T2 sequence (P31652 whole entry): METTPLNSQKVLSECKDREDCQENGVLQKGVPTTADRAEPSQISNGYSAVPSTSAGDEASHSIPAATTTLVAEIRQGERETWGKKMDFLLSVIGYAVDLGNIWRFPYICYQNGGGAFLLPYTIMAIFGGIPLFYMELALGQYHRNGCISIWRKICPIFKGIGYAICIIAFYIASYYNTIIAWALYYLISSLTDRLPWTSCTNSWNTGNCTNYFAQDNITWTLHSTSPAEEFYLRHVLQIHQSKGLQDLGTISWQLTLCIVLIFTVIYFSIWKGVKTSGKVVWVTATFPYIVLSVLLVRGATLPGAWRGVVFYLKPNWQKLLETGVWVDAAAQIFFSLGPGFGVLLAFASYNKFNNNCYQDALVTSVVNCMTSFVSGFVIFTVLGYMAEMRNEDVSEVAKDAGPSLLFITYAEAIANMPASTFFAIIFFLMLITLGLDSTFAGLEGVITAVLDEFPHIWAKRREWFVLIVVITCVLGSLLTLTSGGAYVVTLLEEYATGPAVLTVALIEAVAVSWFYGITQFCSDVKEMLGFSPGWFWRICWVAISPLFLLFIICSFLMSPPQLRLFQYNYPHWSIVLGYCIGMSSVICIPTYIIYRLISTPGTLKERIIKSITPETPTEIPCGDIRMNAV

CC(=O)[C@@H]1[C@@H](c2ccc(F)cc2)C[C@@H]2CC[C@H]1N2C (relative stereo) [WF-1]
Ki (dopamine transporter [1]): 929 ± 160 nM
Ki (5-HT transporter [2]): > 10000 nM

CC(=O)[C@@H]1[C@@H](c2ccccc2)C[C@@H]2CC[C@H]1N2C (relative stereo) [WF-2]
Ki (dopamine transporter [1]): 7270 ± 1210 nM
Ki (5-HT transporter [2]): > 10000 nM

CC(=O)[C@@H]1[C@@H](c2ccc(C)cc2)C[C@@H]2CC[C@H]1N2C (relative stereo) [WF-3]
Ki (dopamine transporter [1]): 775 ± 57 nM
Ki (5-HT transporter [2]): > 10000 nM

CC(=O)[C@H]1[C@@H](c2ccc(C)cc2)C[C@@H]2CC[C@H]1N2C (relative stereo) [WF-4]
binding ratio (dopamine transporter [1]): 12.4
Ki (dopamine transporter [1]): 9.8 ± 0.5 nM
IC50 (dopamine transporter [3]): 13.8 ± 2.6 nM
uptake ratio (dopamine transporter [3]): 24
IC50 (5-HT transporter [4]): 330 ± 75 nM

COC(=O)[C@@H]1[C@@H](c2ccccc2)C[C@@H]2CC[C@H]1N2C (relative stereo) [WF-6]
Ki (dopamine transporter [1]): 2060 ± 545 nM

CC(=O)[C@H]1[C@@H](c2ccc(F)cc2)C[C@@H]2CC[C@H]1N2C (relative stereo) [WF-7]
binding ratio (dopamine transporter [1]): 12.1

CC(=O)[C@H]1[C@@H](c2cccc3ccccc23)C[C@@H]2CC[C@H]1N2C (relative stereo) [WF-8]
IC50 (dopamine transporter [3]): 20.7 ± 7.7 nM
IC50 (5-HT transporter [4]): 4.55 nM

CCc1ccc([C@H]2C[C@@H]3CC[C@H]([C@H]2C(C)=O)N3C)cc1 (relative stereo) [WF-9]
binding ratio (dopamine transporter [1]): 0.51
Ki (dopamine transporter [1]): 152 ± 24 nM
IC50 (dopamine transporter [3]): 1160 ± 266 nM
uptake ratio (dopamine transporter [3]): 0.0082
selectivity towards the 5-HT transporter in terms of binding and inhibition, in words (5-HT transporter [2]): considerable selectivity towards the 5-HT transporter
IC50 (5-HT transporter [4]): 9.5 ± 5.4 nM

COC(=O)[C@H]1[C@@H](c2ccccc2)C[C@@H]2CC[C@H]1N2C (relative stereo) [WF-10]
Ki (dopamine transporter [1]): 98.8 ± 12.2 nM

CCC(=O)[C@H]1[C@@H](c2ccc(C)cc2)C[C@@H]2CC[C@H]1N2C (relative stereo) [WF-11]
binding ratio (dopamine transporter [1]): 15.9
Ki (dopamine transporter [1]): 8.2 ± 1.6 nM
times more potent than cocaine in binding to dopamine transporters (dopamine transporter [1]; [5]): 20 times
IC50 (dopamine transporter [3]): 2.21 ± 1.7 nM
uptake ratio (dopamine transporter [3]): 140
times more potent in inhibiting dopamine uptake than 5-HT uptake (dopamine transporter [3]; uptake assays): 140 times
displacement of [^3 H]paroxetine binding, in words (5-HT transporter [2]): approximately equipotent with cocaine in displacing [^3 H]paroxetine binding
selectivity between dopamine and 5-HT transporters, in words (5-HT transporter [2]): relatively more selective for dopamine transporters
times more potent than cocaine at 5-HT transporter sites (5-HT transporter [2]): twice
IC50 (5-HT transporter [4]): 310 ± 104 nM

CCC(=O)[C@@H]1[C@@H](c2ccc(C)cc2)C[C@@H]2CC[C@H]1N2C (relative stereo) [WF-13]
Ki (dopamine transporter [1]): 764 ± 84 nM
Ki (5-HT transporter [2]): > 10000 nM

CCC(=O)[C@@H]1[C@@H](CC)C[C@@H]2CC[C@H]1N2C (relative stereo) [WF-14]
Ki (dopamine transporter [1]): > 50000 nM
Ki (5-HT transporter [2]): > 10000 nM

CC(=O)[C@@H]1[C@@H](c2cccc3ccccc23)C[C@@H]2CC[C@H]1N2C (relative stereo) [WF-15]
Ki (dopamine transporter [1]): 97 ± 21 nM

CCc1ccc([C@H]2C[C@@H]3CC[C@H]([C@@H]2C(C)=O)N3C)cc1 (relative stereo) [WF-16]
Ki (dopamine transporter [1]): 2290 ± 360 nM
Ki (5-HT transporter [2]): > 10000 nM

Cc1ccc([C@H]2C[C@@H]3CC[C@H]([C@@H]2C(=O)C(C)C)N3C)cc1 (relative stereo) [WF-17]
Ki (dopamine transporter [1]): 2130 ± 266 nM
Ki (5-HT transporter [2]): > 10000 nM

CCC(=O)[C@H]1[C@@H](CC)C[C@@H]2CC[C@H]1N2C (relative stereo) [WF-18]
Ki (dopamine transporter [1]): > 50000 nM

CCC(=O)[C@H]1[C@@H](C2CCCCC2)C[C@@H]2CC[C@H]1N2C (relative stereo) [WF-19]
Ki (5-HT transporter [2]): > 10000 nM

CCC(=O)[C@@H]1[C@@H](c2ccccc2C)C[C@@H]2CC[C@H]1N2C (relative stereo) [WF-21]
Ki (5-HT transporter [2]; [6]): > 10000 nM

CCC(=O)[C@H]1[C@@H](c2ccccc2C)C[C@@H]2CC[C@H]1N2C (relative stereo) [WF-22]
binding ratio (dopamine transporter [1]): 1.30
Ki (dopamine transporter [1]; read-out:): 814 ± 220 nM
Ki (5-HT transporter [2]; [6]): 1060 ± 395 nM

CCC(=O)[C@H]1[C@@H](c2ccc3ccccc3c2)C[C@@H]2CC[C@H]1N2C (relative stereo) [WF-23]
binding ratio (dopamine transporter [1]): 3.1
Ki (dopamine transporter [1]): 0.2 ± 0.04 nM
times more potent than cocaine at both transporters (dopamine transporter [1]; vs cocaine, dopamine and 5-HT transporter binding): 500-800 times
IC50 (dopamine transporter [3]): 0.027 ± 0.016 nM
uptake ratio (dopamine transporter [3]): 10.0
inhibition of [3H]dopamine uptake into striatal cells, in words (dopamine transporter [3]): the most potent analog in inhibiting dopamine uptake
dopamine: 5-HT ratio (dopamine transporter [3]): 3-4
Ki (5-HT transporter [2]): 0.63 ± 0.2 nM
displacement of [^3 H]paroxetine binding, in words (5-HT transporter [2]): the most potent compounds in displacing [^3 H]paroxetine binding
selectivity between dopamine and 5-HT transporters, in words (5-HT transporter [2]): like cocaine, with little selectivity between the two transporters
times more potent than cocaine at 5-HT transporter sites (5-HT transporter [2]): 480 times
blocking [^3 H]5-HT uptake in cortical cells, in words (5-HT transporter [4]): significantly more potent than cocaine in blocking [^3 H]5-HT uptake
IC50 (5-HT transporter [4]): 0.27 nM

CCC(=O)[C@@H]1[C@@H](c2ccc3ccccc3c2)C[C@@H]2CC[C@H]1N2C (relative stereo) [WF-24]
binding ratio (dopamine transporter [1]): 6.53
Ki (dopamine transporter [1]): 2.51 ± 0.82 nM
IC50 (dopamine transporter [3]): 5.9 ± 2.4 nM

CCC(=O)[C@H]1[C@@H](c2ccc(C(C)(C)C)cc2)C[C@@H]2CC[C@H]1N2C (relative stereo) [WF-26]
binding ratio (dopamine transporter [1]): 0.84

CCC(=O)[C@H]1[C@@H](c2ccc(C)c3ccccc23)C[C@@H]2CC[C@H]1N2C (relative stereo) [WF-27]
binding ratio (dopamine transporter [1]): 0.358
Ki (dopamine transporter [1]): 25.1 ± 0.5 nM
IC50 (dopamine transporter [3]): 260 ± 98 nM
selectivity towards the 5-HT transporter in terms of binding and inhibition, in words (5-HT transporter [2]): considerable selectivity towards the 5-HT transporter
IC50 (5-HT transporter [4]): 14.6 nM

CCC(=O)[C@H]1[C@@H](c2cccc3ccccc23)C[C@@H]2CC[C@H]1N2C (relative stereo) [WF-30]
binding ratio (dopamine transporter [1]): 3.91
Ki (dopamine transporter [1]): 5.34 ± 1.27 nM
IC50 (dopamine transporter [3]): 3.66 ± 1.91 nM
uptake ratio (dopamine transporter [3]): 1.46
IC50 (5-HT transporter [4]): 5.43 nM

CCC(=O)[C@H]1[C@@H](c2ccc(C(C)C)cc2)C[C@@H]2CC[C@H]1N2C (relative stereo) [WF-31]
binding ratio (dopamine transporter [1]): 0.089
displacement of [^125 I]RTI-55 binding, in words (dopamine transporter [1]): less potent in displacing [^125 I]RTI-55 than cocaine
Ki (dopamine transporter [1]; read-out:): 615 ± 98 nM
times less potent than cocaine at dopamine transporters (dopamine transporter [1]; [5]): 2.5 times
inhibition of [3H]dopamine uptake into striatal cells, in words (dopamine transporter [3]): considerably less potent in blocking [3H]dopamine uptake
IC50 (dopamine transporter [3]; read-out: DA uptake IC50, striatal cells, fetal and adult rat brain): 5840 ± 2600 nM
displacement of [^3 H]paroxetine binding, in words (5-HT transporter [2]): significantly more potent in displacing [^3 H]paroxetine than cocaine
selectivity towards the 5-HT transporter in terms of binding and inhibition, in words (5-HT transporter [2]): considerable selectivity towards the 5-HT transporter
Ki (5-HT transporter [2]; [6]): 54.5 ± 8.9 nM
times more potent than cocaine at 5-HT transporter sites (5-HT transporter [2]): 8 times
blocking [^3 H]5-HT uptake in cortical cells, in words (5-HT transporter [4]): significantly more potent than cocaine in blocking [^3 H]5-HT uptake
IC50 (5-HT transporter [4]): 46.9 nM
times more potent in inhibiting 5-HT uptake than dopamine uptake (5-HT transporter [4]; uptake assays): 120 times

CC(=O)[C@H]1[C@@H](c2ccc3ccccc3c2)C[C@@H]2CC[C@H]1N2C (relative stereo) [WF-32]
binding ratio (dopamine transporter [1]): 4.27
Ki (dopamine transporter [1]): 0.248 ± 0.15 nM

CCC(=O)[C@H]1[C@@H](c2ccc3cc(OC)ccc3c2)C[C@@H]2CC[C@H]1N2C (relative stereo) [WF-33]
displacement of [^125 I]RTI-55 binding, in words (dopamine transporter [1]): the most potent of these compounds; also recorded: equipotent in displacing [^125 I]RTI-55 binding
displacement of [^3 H]paroxetine binding, in words (5-HT transporter [2]): the most potent compounds in displacing [^3 H]paroxetine binding
times less potent than WF-23 in displacing [^3 H]paroxetine binding (5-HT transporter [2]; vs WF-23): 4 times
times more potent than cocaine at 5-HT transporter sites (5-HT transporter [2]): 140 times

CCC(=O)[C@@H]1[C@@H](c2ccc3cc(OC)ccc3c2)C[C@@H]2CC[C@H]1N2C (relative stereo) [WF-34]
binding ratio (dopamine transporter [1]): 3.76
Ki (dopamine transporter [1]): 54.7 ± 15 nM
Ki (5-HT transporter [2]): 206 ± 81 nM

CCC(=O)[C@H]1[C@@H](c2ccc(-c3ccccc3)cc2)C[C@@H]2CC[C@H]1N2C (relative stereo) [WF-35]
binding ratio (dopamine transporter [1]): 1.88

CCC(=O)C1C(c2ccc3ccccc3c2)CC2CCC1N2C (single isomer, unassigned) [WF-23(1)]
binding ratio (dopamine transporter [1]): 4.2
Ki (dopamine transporter [1]): 113 ± 26 nM
selectivity between dopamine and 5-HT transporters, in words (5-HT transporter [2]): the same as the racemic mixture of WF-23

CCC(=O)C1C(c2ccc3ccccc3c2)CC2CCC1N2C (single isomer, unassigned) [WF-23(2)]
IC50 (dopamine transporter [1]): ~0.03 nM
binding ratio (dopamine transporter [1]): 3.96
Ki (dopamine transporter [1]): 0.032 ± 0.007 nM
dopamine: 5-HT ratio (dopamine transporter [3]): 3-4
Ki (5-HT transporter [2]): 0.127 ± 0.05 nM
displacement of [^3 H]paroxetine binding, in words (5-HT transporter [2]): also potent vs. [^3 H]paroxetine binding
selectivity between dopamine and 5-HT transporters, in words (5-HT transporter [2]): the same as the racemic mixture of WF-23
